{
  "source": "patent US6461848B1",
  "about": "“Human heparanase polypeptide and cDNA” (Novartis AG, priority 1998, dated 2002)",
  "origin": "cited, not measured here",
  "key": {"[1]": {"target": "T1, murin melanoma heparanase (Mus musculus, UniProt Q6YGZ1)", "T1 construct": "host or cells: murine melanoma", "T1 sequence (Q6YGZ1 28-535)": "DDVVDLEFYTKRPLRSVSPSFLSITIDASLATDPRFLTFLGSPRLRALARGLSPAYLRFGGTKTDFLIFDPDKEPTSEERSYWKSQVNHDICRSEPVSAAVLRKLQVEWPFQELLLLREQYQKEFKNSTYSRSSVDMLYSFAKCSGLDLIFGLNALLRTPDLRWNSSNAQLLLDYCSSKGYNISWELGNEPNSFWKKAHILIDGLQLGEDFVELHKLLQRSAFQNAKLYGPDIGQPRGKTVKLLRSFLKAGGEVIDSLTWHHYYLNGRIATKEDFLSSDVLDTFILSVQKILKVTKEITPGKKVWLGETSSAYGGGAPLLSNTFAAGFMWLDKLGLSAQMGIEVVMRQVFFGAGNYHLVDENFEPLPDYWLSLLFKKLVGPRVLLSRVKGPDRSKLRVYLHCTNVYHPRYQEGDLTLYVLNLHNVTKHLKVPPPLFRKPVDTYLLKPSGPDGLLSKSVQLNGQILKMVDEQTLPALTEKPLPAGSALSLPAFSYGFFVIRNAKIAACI"}, "[2]": {"system": "murin melanoma"}, "[3]": {"target": "T2, heparanase (Mus musculus, UniProt Q6YGZ1)", "T2 sequence (Q6YGZ1 28-535)": "T1 sequence (Q6YGZ1 28-535)"}, "[4]": {"target": "T3, heparanase (Homo sapiens, UniProt Q9Y251)", "T3 sequence (Q9Y251 36-543)": "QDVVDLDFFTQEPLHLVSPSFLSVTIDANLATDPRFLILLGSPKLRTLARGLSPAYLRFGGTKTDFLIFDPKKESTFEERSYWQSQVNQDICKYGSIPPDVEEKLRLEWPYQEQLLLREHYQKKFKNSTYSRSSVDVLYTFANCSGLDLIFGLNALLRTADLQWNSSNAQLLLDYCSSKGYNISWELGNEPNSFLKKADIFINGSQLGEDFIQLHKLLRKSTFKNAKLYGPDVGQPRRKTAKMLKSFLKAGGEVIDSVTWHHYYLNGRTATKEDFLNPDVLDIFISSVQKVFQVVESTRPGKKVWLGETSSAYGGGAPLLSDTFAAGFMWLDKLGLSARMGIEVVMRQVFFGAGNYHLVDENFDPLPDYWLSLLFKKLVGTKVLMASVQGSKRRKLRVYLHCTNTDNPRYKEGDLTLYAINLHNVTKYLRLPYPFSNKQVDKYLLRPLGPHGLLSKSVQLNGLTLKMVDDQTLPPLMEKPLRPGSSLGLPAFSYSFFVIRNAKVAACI"}, "[5]": {"system": "human pancreatic (Ca-Pan-2) adenocarcinoma", "settings": "subcutaneous Ca-Pan-2 adenocarcinoma, nude mice"}, "[6]": {"system": "B16-F10 melanoma", "settings": "C57BL/6N mice, B16-F10 experimental lung metastasis"}},
  "data": [
    {"compound": "Cc1ccc(C(=O)Nc2ccc(S(=O)(=O)O)c3cc(S(=O)(=O)O)cc(S(=O)(=O)O)c23)cc1NC(=O)c1cccc(NC(=O)Nc2cccc(C(=O)Nc3cc(C(=O)Nc4ccc(S(=O)(=O)O)c5cc(S(=O)(=O)O)cc(S(=O)(=O)O)c45)ccc3C)c2)c1", "note": "[Suramin]", "values": [
      {"measurement": "inhibition of murin melanoma heparanase", "setting": "[1]", "result": "strongly inhibit"},
      {"measurement": "inhibition of melanoma invasion", "setting": "[2]", "result": "strongly inhibit"}
    ]},
    {"compound": "O=C(O)[C@@H](O)[C@H]1OC(=O)[C@H](O)[C@H]1O", "note": "[1,4-saccharolactone]", "values": [
      {"measurement": "inhibition of heparanase", "setting": "[3]", "result": "not"}
    ]},
    {"compound": "2,3-O-desulfated heparin", "values": [
      {"measurement": "inhibition of heparanase activity", "setting": "[4]", "result": "inhibit"},
      {"measurement": "inhibition of tumor growth", "setting": "[5]", "result": "inhibit"},
      {"measurement": "survival times", "setting": "[6]", "result": "prolonged"}
    ]},
    {"compound": "heparin", "values": [
      {"measurement": "inhibition of heparanase", "setting": "[3]", "result": "inhibited"}
    ]}
  ]
}
